In brackets after ≈: the same amount, converted by molar mass. Several values for one entry are separate records, joined by “and”; a condition that tells them apart may be missing. Identical values can stand only once.
Columns and labels:
Staphylococcus aureus [1] = assay: Antibacterial activity against Staphylococcus aureus ATCC 29223 by CLSI broth microdilution method; type: functional
Staphylococcus aureus [2] = assay: Antibacterial activity against Staphylococcus aureus ATCC 29213 by CLSI broth microdilution method; type: functional
Enterococcus faecalis [3] = assay: Antibacterial activity against Enterococcus faecalis ATCC 29212 by CLSI broth microdilution method; type: functional
Escherichia coli [4] = assay: Bactericidal activity against Escherichia coli ATCC 25922; type: functional
Escherichia coli [5] = assay: Antibacterial activity against Escherichia coli ATCC 25922 by CLSI broth microdilution method; type: functional
Staphylococcus aureus [6] = assay: Bactericidal activity against Staphylococcus aureus ATCC 29213; type: functional
Enterococcus faecalis [7] = assay: Bactericidal activity against Enterococcus faecalis ATCC 29212; type: functional
Staphylococcus aureus [8] = assay: Bactericidal activity against Staphylococcus aureus ATCC 29223; type: functional
Pseudomonas aeruginosa [9] = assay: Antibacterial activity against Pseudomonas aeruginosa ATCC 27853 by CLSI broth microdilution method; type: functional
Proteus sp. = assay: Antibacterial activity against […] resistant Proteus sp. clinical isolate 17 assessed as reduction in bacterial growth incubated for 24 hrs by CLSI broth microdilution method; type: functional; details: Proteus sp. (in: enterobacteria)
Pseudomonas aeruginosa [10] = assay: Bactericidal activity against Pseudomonas aeruginosa ATCC 27853 assessed as reduction in bacterial growth incubated for 24 hrs followed by replating on MH broth and further incubated for 24 hrs by CLSI broth microdilution method; type: functional
Staphylococcus aureus [11] = assay: Antibacterial activity against methicillin- resistant Staphylococcus aureus 967 clinical isolate assessed as reduction in bacterial growth incubated for 24 hrs by CLSI broth microdilution method; type: functional
Bacillus subtilis [12] = assay: Bactericidal activity against Bacillus subtilis 168 assessed as reduction in bacterial growth incubated for 24 hrs followed by replating on MH broth and further incubated for 24 hrs by CLSI broth microdilution method; type: functional; details: Bacillus subtilis, 168, 24 h
Staphylococcus aureus [13] = assay: Antibacterial activity against methicillin- resistant Staphylococcus aureus 2020 clinical isolate assessed as reduction in bacterial growth incubated for 24 hrs by CLSI broth microdilution method; type: functional
Escherichia coli [14] = assay: Bactericidal activity against Escherichia coli ATCC 25922 assessed as reduction in bacterial growth incubated for 24 hrs followed by replating on MH broth and further incubated for 24 hrs by CLSI broth microdilution method; type: functional
[15] = system: Staphylococcus intermedius; assay: Antibacterial activity against methicillin- resistant Staphylococcus intermedius 1143 clinical isolate assessed as reduction in bacterial growth incubated for 24 hrs by CLSI broth microdilution method; type: functional
Klebsiella pneumoniae [16] = assay: Bactericidal activity against Klebsiella pneumoniae ATCC 1813 assessed as reduction in bacterial growth incubated for 24 hrs followed by replating on MH broth and further incubated for 24 hrs by CLSI broth microdilution method; type: functional
[17] = Antibacterial activity against […] resistant Moraxella sp.829 clinical isolate assessed as reduction in bacterial growth incubated for 24 hrs by CLSI broth microdilution method; type: functional; details: Moraxella catarrhalis
[18] = system: Staphylococcus epidermidis; assay: Antibacterial activity against Staphylococcus epidermidis assessed as reduction in bacterial growth incubated for 24 hrs by CLSI broth microdilution method; type: functional
Staphylococcus aureus [19] = assay: Bactericidal activity against Staphylococcus aureus ATCC 29213 assessed as reduction in bacterial growth incubated for 24 hrs followed by replating on MH broth and further incubated for 24 hrs by CLSI broth microdilution method; type: functional; details: Staphylococcus aureus, ATCC 29213; time 48 hrs; read-out: MBC
Klebsiella sp. [20] = assay: Antibacterial activity against […] resistant Klebsiella sp. clinical isolate 12 assessed as reduction in bacterial growth incubated for 24 hrs by CLSI broth microdilution method; type: functional
Klebsiella sp. [21] = assay: Antibacterial activity against […] resistant Klebsiella sp. clinical isolate 11 assessed as reduction in bacterial growth incubated for 24 hrs by CLSI broth microdilution method; type: functional
[22] = Selectivity index, ratio of CC50 for human HSF cells to MIC for Klebsiella pneumoniae ATCC 1813; type: toxicity; details: for selectivity ratio: HSF cells
[23] = Antibacterial activity against […] resistant Moraxella sp.765 clinical isolate assessed as reduction in bacterial growth incubated for 24 hrs by CLSI broth microdilution method; type: functional; details: Moraxella catarrhalis
Pseudomonas = assay: Antibacterial activity against methicillin- resistant Pseudomonas spp. clinical isolate 6 assessed as reduction in bacterial growth incubated for 24 hrs by CLSI broth microdilution method; type: functional
[24] = Antibacterial activity against […] resistant Moraxella sp.764 clinical isolate assessed as reduction in bacterial growth incubated for 24 hrs by CLSI broth microdilution method; type: functional; details: Moraxella catarrhalis
Acinetobacter [25] = assay: Antibacterial activity against […] resistant Acinetobacter spp. clinical isolate 5 assessed as reduction in bacterial growth incubated for 24 hrs by CLSI broth microdilution method; type: functional
[26] = Selectivity index, ratio of CC50 for human HSF cells to MIC for Pseudomonas aeruginosa ATCC 27853; type: toxicity; details: for selectivity ratio: HSF cells
Staphylococcus aureus [27] = assay: Antibacterial activity against methicillin- resistant Staphylococcus aureus 983 clinical isolate assessed as reduction in bacterial growth incubated for 24 hrs by CLSI broth microdilution method; type: functional
Pseudomonas aeruginosa [28] = assay: Antibacterial activity against Pseudomonas aeruginosa ATCC 27853 assessed as reduction in bacterial growth incubated for 24 hrs by CLSI broth microdilution method; type: functional
[29] = system: Staphylococcus haemolyticus; assay: Antibacterial activity against methicillin- resistant Staphylococcus haemolyticus 837 assessed as reduction in bacterial growth incubated for 24 hrs by CLSI broth microdilution method; type: functional
Bacillus subtilis [30] = assay: Antibacterial activity against Bacillus subtilis 168 assessed as reduction in bacterial growth incubated for 24 hrs by CLSI broth microdilution method; type: functional
Acinetobacter [31] = assay: Antibacterial activity against […] resistant Acinetobacter spp. clinical isolate 1 assessed as reduction in bacterial growth incubated for 24 hrs by CLSI broth microdilution method; type: functional
[32] = system: Staphylococcus epidermidis; assay: Bactericidal activity against Staphylococcus epidermidis assessed as reduction in bacterial growth incubated for 24 hrs followed by replating on MH broth and further incubated for 24 hrs by CLSI broth microdilution method; type: functional; details: Staphylococcus epidermidis, read-out: MBC
Acinetobacter [33] = assay: Antibacterial activity against […] resistant Acinetobacter spp. clinical isolate 3 assessed as reduction in bacterial growth incubated for 24 hrs by CLSI broth microdilution method; type: functional
Staphylococcus aureus [34] = assay: Antibacterial activity against methicillin- resistant Staphylococcus aureus 25 clinical isolate assessed as reduction in bacterial growth incubated for 24 hrs by CLSI broth microdilution method; type: functional
Escherichia coli [35] = assay: Antibacterial activity against Escherichia coli ATCC 25922 assessed as reduction in bacterial growth incubated for 24 hrs by CLSI broth microdilution method; type: functional; details: Escherichia coli, ATCC 25922, 24 h, read-out: MIC
Staphylococcus aureus [36] = assay: Antibacterial activity against Staphylococcus aureus ATCC 29213 assessed as reduction in bacterial growth incubated for 24 hrs by CLSI broth microdilution method; type: functional; details: Staphylococcus aureus, ATCC 29213, 24 h, read-out: MIC
[37] = Selectivity index, ratio of CC50 for human HSF cells to MIC for Staphylococcus epidermidis; type: toxicity; details: HSF cells
[38] = Selectivity index, ratio of CC50 for human HSF cells to MIC for Bacillus subtilis 168; type: toxicity; details: HSF cells
Klebsiella pneumoniae [39] = assay: Antibacterial activity against Klebsiella pneumoniae ATCC 1813 assessed as reduction in bacterial growth incubated for 24 hrs by CLSI broth microdilution method; type: functional; details: Klebsiella pneumoniae, ATCC 1813, 24 h, read-out: MIC
[40] = Cytotoxicity against human HSF cells assessed as reduction in cell viability incubated for 72 hrs by MTT assay; type: cell-based, HSF (VGS)
[41] = Selectivity index, ratio of CC50 for human HSF cells to MIC for Staphylococcus aureus ATCC 29213; type: toxicity; details: HSF cells
[42] = Selectivity index, ratio of CC50 for human HSF cells to MIC for Escherichia coli ATCC 25922; type: toxicity
[43] = Enterococcus faecalis, ATCC 29212, read-out: MIC
[44] = Staphylococcus epidermidis, read-out: MIC
[45] = Pseudomonas aeruginosa, ATCC 27853, 24 h, read-out: MIC
[46] = Bacillus subtilis, 168, 24 h, read-out: MIC

N=C(N)NCCc1cc2c(O)c(c1)Cc1cc(CCNC(=N)N)cc(c1O)Cc1cc(CCNC(=N)N)cc(c1O)Cc1cc(CCNC(=N)N)cc(c1O)C2.O=C(O)C(F)(F)F.O=C(O)C(F)(F)F.O=C(O)C(F)(F)F.O=C(O)C(F)(F)F
MIC (Staphylococcus aureus [1]): 8 µg/mL
MIC (Staphylococcus aureus [2]): 8 µg/mL
MIC (Enterococcus faecalis [3]; [43]): 32 µg/mL
MBC (Escherichia coli [4]): 256 µg/mL
MIC (Escherichia coli [5]): 4 µg/mL
MBC (Staphylococcus aureus [6]): 256 µg/mL
MBC (Enterococcus faecalis [7]): > 256 µg/mL
MBC (Staphylococcus aureus [8]): 256 µg/mL
MIC (Pseudomonas aeruginosa [9]): 32 µg/mL

CC(C)(C)c1cc2c(OCCCNC(=N)N)c(c1)Cc1cc(C(C)(C)C)cc(c1OCCCNC(=N)N)Cc1cc(C(C)(C)C)cc(c1OCCCNC(=N)N)Cc1cc(C(C)(C)C)cc(c1OCCCNC(=N)N)C2.O=C(O)C(F)(F)F.O=C(O)C(F)(F)F.O=C(O)C(F)(F)F.O=C(O)C(F)(F)F
MIC (Enterococcus faecalis [3]): 4 µg/mL and 8 µg/mL
MIC (Enterococcus faecalis [3]; [43]): 8 µg/mL

CCCCCCCCCC[N+](C)(C)CCCNC(=O)COc1c2cc(C(C)(C)C)cc1Sc1cc(C(C)(C)C)cc(c1OCC(=O)NCCC[N+](C)(C)CCCCCCCCCC)Sc1cc(C(C)(C)C)cc(c1OCC(=O)NCCC[N+](C)(C)CCCCCCCCCC)Sc1cc(C(C)(C)C)cc(c1OCC(=O)NCCC[N+](C)(C)CCCCCCCCCC)S2.[Cl-].[Cl-].[Cl-].[Cl-]
MIC (Proteus sp.): > 64 µg/mL
MBC (Pseudomonas aeruginosa [10]): > 64 µg/mL
MIC (Staphylococcus aureus [11]): 32 µg/mL
MBC (Bacillus subtilis [12]): 32 µg/mL
MIC (Staphylococcus aureus [13]): 32 µg/mL
MBC (Escherichia coli [14]): 64 µg/mL
MIC [15]: 2 µg/mL
MBC (Klebsiella pneumoniae [16]): 32 µg/mL
MIC [17]: > 64 µg/mL
MIC [18]: 4 µg/mL
MIC [18, 44]: 8 µg/mL
MBC (Staphylococcus aureus [19]): 8 µg/mL
MIC (Klebsiella sp. [20]): > 64 µg/mL
MIC (Klebsiella sp. [21]): > 64 µg/mL
Ratio [22]: 1 and 3
MIC [23]: > 64 µg/mL
MIC (Pseudomonas): > 64 µg/mL
MIC [24]: > 64 µg/mL
MIC (Acinetobacter [25]): > 64 µg/mL
Ratio [26]: < 0.5
selectivity ratio [26]: 0.5
MIC (Staphylococcus aureus [27]): 32 µg/mL
MIC (Pseudomonas aeruginosa [28]; 24 h): >64 µg/mL
MIC (Pseudomonas aeruginosa [28]; [45]): 64 µg/mL
MIC [29]: 32 µg/mL
MIC (Bacillus subtilis [30]): 4 µg/mL
MIC (Bacillus subtilis [30]; [46]): 4 µg/mL
MIC (Acinetobacter [31]): > 64 µg/mL
MBC [32]: 16 µg/mL
MIC (Acinetobacter [33]): > 64 µg/mL
MIC (Staphylococcus aureus [34]): 4 µg/mL

[H]/N=C(\N/C(=N/[H])NCCCCCCNC(=N)NC(=N)Nc1ccc(Cl)cc1)Nc1ccc(Cl)cc1 [CHLORHEXIDINE]
MIC (Escherichia coli [35]): 1 µg/mL (≈ 1.98 µM)
MIC (Staphylococcus aureus [36]): 2 µg/mL (≈ 3.96 µM)
selectivity ratio [37]: 5.48
MIC [18, 44]: 1 µg/mL (≈ 1.98 µM)
selectivity ratio [38]: 2.74
selectivity ratio [22]: 2.74
MIC (Klebsiella pneumoniae [39]): 2 µg/mL (≈ 3.96 µM)
selectivity ratio [26]: 1.37
MIC (Pseudomonas aeruginosa [28]; [45]): 4 µg/mL (≈ 7.91 µM)
MIC (Bacillus subtilis [30]; [46]): 2 µg/mL (≈ 3.96 µM)
CC50 at 72 h [40]: 5.48 µg/mL (≈ 10.8 µM)
selectivity ratio [41]: 2.74
selectivity ratio [42]: 5.48

CCCCCCCCCCCCCC(=O)NCCC[N+](C)(C)Cc1ccccc1.[Cl-] [MIRAMISTIN]
MIC (Proteus sp.): > 64 µg/mL
MBC (Pseudomonas aeruginosa [10]): 64 µg/mL
MIC (Staphylococcus aureus [11]): 16 µg/mL
MBC (Bacillus subtilis [12]): 64 µg/mL
MIC (Escherichia coli [35]): 64 µg/mL
MIC (Staphylococcus aureus [36]): 16 µg/mL
MIC (Staphylococcus aureus [13]): 8 µg/mL
MBC (Escherichia coli [14]): 64 µg/mL
MIC [15]: 8 µg/mL
selectivity ratio [37]: 2.4
MBC (Klebsiella pneumoniae [16]): 64 µg/mL
MIC [17]: 32 µg/mL
MIC [18, 44]: 4 µg/mL
selectivity ratio [38]: 1.2
MBC (Staphylococcus aureus [19]): 32 µg/mL
MIC (Klebsiella sp. [20]): > 64 µg/mL
MIC (Klebsiella sp. [21]): 64 µg/mL
selectivity ratio [22]: 0.15
MIC (Klebsiella pneumoniae [39]): 64 µg/mL
MIC [23]: 64 µg/mL
MIC (Pseudomonas): > 64 µg/mL
MIC [24]: 64 µg/mL
MIC (Acinetobacter [25]): > 64 µg/mL
selectivity ratio [26]: 0.15
MIC (Staphylococcus aureus [27]): 4 µg/mL
MIC (Pseudomonas aeruginosa [28]; [45]): 64 µg/mL
MIC [29]: 64 µg/mL
MIC (Bacillus subtilis [30]; [46]): 8 µg/mL
CC50 at 72 h [40]: 9.4 µg/mL
selectivity ratio [41]: 0.6
MIC (Acinetobacter [31]): 64 µg/mL
MBC [32]: 32 µg/mL
MIC (Acinetobacter [33]): 64 µg/mL
MIC (Staphylococcus aureus [34]): 0.5 µg/mL
selectivity ratio [42]: 0.15
